Values of other authors as cited in US20130035389A1, “METHODS FOR TREATING MYELODYSPLASTIC SYNDROME WITH EZATIOSTAT” (Telik, Inc., priority 2011, published 2013).

Columns and labels:
[1] = system: leukemia cells; conditions: in vitro
[2] = system: hematopoietic progenitor cells; conditions: in vitro
[3] = target: GST P1-1 (Homo sapiens, UniProt P09211); conditions: leads to de-repression of jun kinase and activation of c-Jun
[4] = system: myelodysplastic syndrome; conditions: low risk and intermediate-1 risk MDS patients, oral, phase II study

GST P1-1, sequence (P09211 2-210 limits assumed): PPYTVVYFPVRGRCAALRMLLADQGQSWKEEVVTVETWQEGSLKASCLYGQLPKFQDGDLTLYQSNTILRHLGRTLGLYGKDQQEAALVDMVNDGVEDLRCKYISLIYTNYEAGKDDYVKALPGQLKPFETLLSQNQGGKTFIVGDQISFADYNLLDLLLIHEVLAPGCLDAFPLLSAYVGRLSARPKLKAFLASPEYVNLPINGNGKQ

SMILES | apoptosis in leukemia cells [1] | effect on growth and differentiation of hematopoietic progenitor cells [2] | inhibition of GST P1-1 [3] | clinical response [4]
CCOC(=O)[C@@H](N)CCC(=O)N[C@@H](CSCc1ccccc1)C(=O)N[C@@H](C(=O)OCC)c1ccccc1 [Ezatiostat, ethyl (2S)-2-amino-5-[[(2R)-3-benzylsulfanyl-1-[[(1R)-2-ethoxy-2-oxo-1-phenylethyl]amino]-1-oxopropan-2-yl]amino]-5-oxopentanoate] | induce apoptosis in leukemia cells | stimulate growth and differentiation of hematopoietic progenitor cells | inhibits GST P1-1 | –
CCOC(=O)[C@@H](N)CCC(=O)N[C@@H](CSCc1ccccc1)C(=O)N[C@@H](C(=O)OCC)c1ccccc1.Cl [ezatiostat hydrochloride] | – | – | – | multilineage responses
